Active and inactive are the calls of the source. The calls are words filed in the database; no cut-off is given here.
Columns and labels:
[1] = target: C-X-C chemokine receptor type 2 (Homo sapiens) (UniProt P25025); assay: CXCR2 (IL-8B) Eurofins-Cerep binding assay; details: filed as agonist, Compound concentration 10.0 uM
[2] = target: cGMP-dependent 3',5'-cyclic phosphodiesterase (Homo sapiens, UniProt O00408); assay: Scintillation proximity assay (PDE2A) ( Mean (95% Confidence Interval) = 0.8 -1 nM; Ki = 0.7 nM)
[3] = target: cGMP-dependent 3',5'-cyclic phosphodiesterase (Rattus norvegicus) (UniProt Q01062); assay: Target occupancy in striatum ( p.o.dose, 1 h); format: organism-based
Rattus norvegicus [4] = species: Rattus norvegicus; assay: alpha 1 (non-selective) Eurofins-Cerep binding assay; format: protein assay; design: ligand concentration 0.25 nM; details: filed as antagonist, Compound concentration 10.0 uM
Rattus norvegicus [5] = species: Rattus norvegicus; assay: alpha 2 (non-selective) Eurofins-Cerep binding assay; format: protein assay; design: ligand concentration 1 nM; details: filed as antagonist, Compound concentration 10.0 uM
[6] = target: B2 bradykinin receptor (Homo sapiens) (UniProt P30411); assay: B2 Eurofins-Cerep binding assay; design: ligand concentration 0.3 nM; details: filed as agonist, Compound concentration 10.0 uM
[7] = target: D(2) dopamine receptor (Homo sapiens) (UniProt P14416); assay: D2S (h) Eurofins-Cerep binding assay; design: ligand concentration 0.3 nM; details: filed as antagonist, Compound concentration 10.0 uM
[8] = target: GABA-A receptor; anion channel (Rattus norvegicus) (UniProt O09028+P15431+P18506+P18508+P19969+P20236+P23574+P23576+P28471+P28473+P30191+P62813+P63079+P63138+Q91ZM7+Q9ES14); assay: GABA (non-selective) Eurofins-Cerep binding assay; format: protein-complex assay; design: ligand concentration 10 nM; details: filed as agonist, Compound concentration 10.0 uM
[9] = target: Galanin receptor type 2 (Homo sapiens) (UniProt O43603); assay: GAL2 Eurofins-Cerep binding assay; design: ligand concentration 0.05 nM; details: filed as agonist, Compound concentration 10.0 uM
[10] = target: C-C chemokine receptor type 1 (Homo sapiens) (UniProt P32246); assay: CCR1 Eurofins-Cerep binding assay; design: ligand concentration 0.01 nM; details: filed as agonist, Compound concentration 10.0 uM
[11] = target: Substance-K receptor (Homo sapiens) (UniProt P21452); assay: NK2 Eurofins-Cerep binding assay; design: ligand concentration 0.1 nM; details: filed as agonist, Compound concentration 10.0 uM
[12] = target: Neuromedin-K receptor (Homo sapiens) (UniProt P29371); assay: NK3 Eurofins-Cerep binding assay; design: ligand concentration 0.4 nM; details: filed as antagonist, Compound concentration 10.0 uM
[13] = target: Neurotensin receptor type 1 (Homo sapiens) (UniProt P30989); assay: NTS1 (NT1) Eurofins-Cerep binding assay; design: ligand concentration 0.05 nM; details: filed as agonist, Compound concentration 10.0 uM
[14] = target: Nociceptin receptor (Homo sapiens) (UniProt P41146); assay: NOP (ORL1) Eurofins-Cerep binding assay; design: ligand concentration 0.06 nM; details: filed as agonist, Compound concentration 10.0 uM
[15] = target: 5-hydroxytryptamine receptor 2A (Homo sapiens) (UniProt P28223); assay: 5-HT2A Eurofins-Cerep binding assay; design: ligand concentration 0.5 nM; details: filed as antagonist, Compound concentration 10.0 uM
[16] = target: 5-hydroxytryptamine receptor 5A (Homo sapiens) (UniProt P47898); assay: 5-HT5a Eurofins-Cerep binding assay; design: ligand concentration 1.5 nM; details: filed as agonist, Compound concentration 10.0 uM
[17] = target: 5-hydroxytryptamine receptor 6 (Homo sapiens) (UniProt P50406); assay: 5-HT6 Eurofins-Cerep binding assay; design: ligand concentration 2 nM; details: filed as agonist, Compound concentration 10.0 uM
Mus musculus = species: Mus musculus; assay: sst (non-selective) Eurofins-Cerep binding assay; format: protein assay; design: ligand concentration 0.05 nM; details: filed as agonist, Compound concentration 10.0 uM
[18] = target: Vasoactive intestinal polypeptide receptor 1 (Homo sapiens) (UniProt P32241); assay: VPAC1 (VIP1) Eurofins-Cerep binding assay; design: ligand concentration 0.04 nM; details: filed as agonist, Compound concentration 10.0 uM
Rattus norvegicus [19] = species: Rattus norvegicus; assay: Ca2+ channel (L,verapamil site) (phenylalkylamine) Eurofins-Cerep binding assay; format: protein assay; design: ligand concentration 3 nM; details: filed as antagonist, Compound concentration 10.0 uM
Rattus norvegicus [20] = species: Rattus norvegicus; assay: SKCa channel Eurofins-Cerep binding assay; format: protein assay; design: ligand concentration 0.007 nM; details: filed as antagonist, Compound concentration 10.0 uM
[21] = target: cAMP and cAMP-inhibited cGMP 3',5'-cyclic phosphodiesterase 10A (Homo sapiens, UniProt Q9Y233); assay: IC50 of hPDE10A2 in the PDE screen at 1.0 µM
Phosphodiesterase 3 = Phosphodiesterase 3 (Homo sapiens, UniProt Q14432+Q13370); assay: IC50 of hPDE3 in the PDE screen at 1.0 µM; format: protein assay
[22] = target: Dual specificity calcium/calmodulin-dependent 3',5'-cyclic nucleotide phosphodiesterase 1B (Homo sapiens, UniProt Q01064); assay: IC50 of hPDE1B1 in the PDE screen at 1.0 µM
[23] = target: 3',5'-cyclic-AMP phosphodiesterase 4D (Homo sapiens, UniProt Q08499); assay: IC50 of hPDE4D3 in the PDE screen at 1.0 µM
[24] = target: cGMP-specific 3',5'-cyclic phosphodiesterase (Homo sapiens, UniProt O76074); assay: IC50 of hPDE5A3 in the PDE screen at 1.0 µM
[25] = IC50 of bovine retina PDE6 in the PDE screen at 1.0 µM; design: species or system Bos taurus
[26] = target: High affinity 3',5'-cyclic-AMP phosphodiesterase 7A (Homo sapiens, UniProt Q13946); assay: IC50 of hPDE7A1 in the PDE screen at 1.0 µM
[27] = target: High affinity cAMP-specific and IBMX-insensitive 3',5'-cyclic phosphodiesterase 8A (Homo sapiens, UniProt O60658); assay: IC50 of hPDE8A1 in the PDE screen at 1.0 µM
[28] = target: High affinity cGMP-specific 3',5'-cyclic phosphodiesterase 9A (Homo sapiens, UniProt O76083); assay: IC50 of hPDE9A in the PDE screen at 1.0 µM

cAMP and cAMP-inhibited cGMP 3',5'-cyclic phosphodiesterase 10A, sequence (Q9Y233 whole entry): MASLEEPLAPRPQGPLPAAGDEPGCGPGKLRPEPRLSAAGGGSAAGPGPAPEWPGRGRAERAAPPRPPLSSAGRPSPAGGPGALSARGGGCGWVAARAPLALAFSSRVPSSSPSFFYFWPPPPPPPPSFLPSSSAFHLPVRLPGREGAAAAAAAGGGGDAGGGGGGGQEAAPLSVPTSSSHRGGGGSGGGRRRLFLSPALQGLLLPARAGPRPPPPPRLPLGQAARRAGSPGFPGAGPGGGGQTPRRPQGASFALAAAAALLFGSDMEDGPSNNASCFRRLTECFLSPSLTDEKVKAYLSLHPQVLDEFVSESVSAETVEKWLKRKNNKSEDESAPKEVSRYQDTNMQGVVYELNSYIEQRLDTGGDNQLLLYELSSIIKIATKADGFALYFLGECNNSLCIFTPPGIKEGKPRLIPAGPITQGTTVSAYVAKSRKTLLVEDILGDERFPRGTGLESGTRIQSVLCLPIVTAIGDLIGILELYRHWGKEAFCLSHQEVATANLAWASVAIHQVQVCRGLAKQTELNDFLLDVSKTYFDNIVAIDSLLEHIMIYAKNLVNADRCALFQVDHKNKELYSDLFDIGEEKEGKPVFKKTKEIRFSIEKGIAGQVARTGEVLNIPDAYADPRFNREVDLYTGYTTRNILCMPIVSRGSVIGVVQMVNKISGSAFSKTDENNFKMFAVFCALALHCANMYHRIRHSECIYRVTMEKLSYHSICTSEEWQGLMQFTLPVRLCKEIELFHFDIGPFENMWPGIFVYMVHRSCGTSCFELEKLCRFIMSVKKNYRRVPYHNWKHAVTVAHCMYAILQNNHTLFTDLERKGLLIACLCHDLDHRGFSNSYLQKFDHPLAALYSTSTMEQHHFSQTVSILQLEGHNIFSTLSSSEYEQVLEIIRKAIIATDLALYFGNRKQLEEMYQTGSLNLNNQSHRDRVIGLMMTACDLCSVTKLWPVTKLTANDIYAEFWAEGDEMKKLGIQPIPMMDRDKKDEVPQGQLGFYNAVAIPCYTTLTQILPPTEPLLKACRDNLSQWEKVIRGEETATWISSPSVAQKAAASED
5-hydroxytryptamine receptor 2A (Homo sapiens), sequence (P28223 whole entry): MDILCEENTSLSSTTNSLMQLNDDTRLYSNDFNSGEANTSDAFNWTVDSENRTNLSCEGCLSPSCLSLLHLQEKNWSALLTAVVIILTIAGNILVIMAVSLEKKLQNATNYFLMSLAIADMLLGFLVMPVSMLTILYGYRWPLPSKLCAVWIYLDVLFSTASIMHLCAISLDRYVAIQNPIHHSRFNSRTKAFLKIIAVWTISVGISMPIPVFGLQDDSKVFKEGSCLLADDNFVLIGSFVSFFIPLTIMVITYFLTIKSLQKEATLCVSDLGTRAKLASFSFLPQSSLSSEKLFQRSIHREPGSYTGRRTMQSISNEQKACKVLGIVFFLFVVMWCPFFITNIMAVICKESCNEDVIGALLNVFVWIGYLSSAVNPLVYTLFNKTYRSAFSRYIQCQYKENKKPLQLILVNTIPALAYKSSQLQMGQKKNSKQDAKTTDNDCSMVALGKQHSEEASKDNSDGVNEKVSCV
B2 bradykinin receptor (Homo sapiens), sequence (P30411 whole entry): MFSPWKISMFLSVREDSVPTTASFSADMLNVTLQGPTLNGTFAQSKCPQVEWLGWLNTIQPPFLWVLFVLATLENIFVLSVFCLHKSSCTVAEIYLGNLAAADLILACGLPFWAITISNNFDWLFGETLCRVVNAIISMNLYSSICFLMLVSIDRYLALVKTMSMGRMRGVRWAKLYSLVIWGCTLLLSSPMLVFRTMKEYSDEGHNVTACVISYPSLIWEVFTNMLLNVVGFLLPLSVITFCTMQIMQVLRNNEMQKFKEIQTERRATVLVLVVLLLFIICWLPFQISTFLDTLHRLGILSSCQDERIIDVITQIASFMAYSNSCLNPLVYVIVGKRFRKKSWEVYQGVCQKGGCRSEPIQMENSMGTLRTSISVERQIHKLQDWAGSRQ
3',5'-cyclic-AMP phosphodiesterase 4D, sequence (Q08499 whole entry): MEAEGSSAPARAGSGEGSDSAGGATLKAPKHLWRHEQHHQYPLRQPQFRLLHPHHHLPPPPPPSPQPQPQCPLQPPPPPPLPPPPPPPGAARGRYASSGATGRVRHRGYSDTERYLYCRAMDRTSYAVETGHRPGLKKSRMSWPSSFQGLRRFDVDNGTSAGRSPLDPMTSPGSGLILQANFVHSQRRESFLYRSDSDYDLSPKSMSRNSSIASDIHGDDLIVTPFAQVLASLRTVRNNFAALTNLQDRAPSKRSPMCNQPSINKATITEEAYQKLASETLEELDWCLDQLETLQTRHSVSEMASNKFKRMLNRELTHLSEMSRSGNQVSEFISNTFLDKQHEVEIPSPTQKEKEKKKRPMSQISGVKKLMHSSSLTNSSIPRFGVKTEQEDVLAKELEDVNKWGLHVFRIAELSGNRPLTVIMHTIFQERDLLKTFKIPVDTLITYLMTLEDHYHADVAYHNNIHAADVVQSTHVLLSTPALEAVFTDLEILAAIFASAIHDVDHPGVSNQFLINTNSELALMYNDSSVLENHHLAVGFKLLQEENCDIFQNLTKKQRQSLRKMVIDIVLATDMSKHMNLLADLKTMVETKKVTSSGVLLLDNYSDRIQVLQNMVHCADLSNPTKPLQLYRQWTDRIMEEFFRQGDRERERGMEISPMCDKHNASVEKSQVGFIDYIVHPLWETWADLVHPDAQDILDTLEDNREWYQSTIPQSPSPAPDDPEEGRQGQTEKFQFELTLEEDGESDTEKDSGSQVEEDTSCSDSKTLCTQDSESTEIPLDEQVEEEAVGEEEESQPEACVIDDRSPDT
cGMP-dependent 3',5'-cyclic phosphodiesterase, sequence (O00408 whole entry): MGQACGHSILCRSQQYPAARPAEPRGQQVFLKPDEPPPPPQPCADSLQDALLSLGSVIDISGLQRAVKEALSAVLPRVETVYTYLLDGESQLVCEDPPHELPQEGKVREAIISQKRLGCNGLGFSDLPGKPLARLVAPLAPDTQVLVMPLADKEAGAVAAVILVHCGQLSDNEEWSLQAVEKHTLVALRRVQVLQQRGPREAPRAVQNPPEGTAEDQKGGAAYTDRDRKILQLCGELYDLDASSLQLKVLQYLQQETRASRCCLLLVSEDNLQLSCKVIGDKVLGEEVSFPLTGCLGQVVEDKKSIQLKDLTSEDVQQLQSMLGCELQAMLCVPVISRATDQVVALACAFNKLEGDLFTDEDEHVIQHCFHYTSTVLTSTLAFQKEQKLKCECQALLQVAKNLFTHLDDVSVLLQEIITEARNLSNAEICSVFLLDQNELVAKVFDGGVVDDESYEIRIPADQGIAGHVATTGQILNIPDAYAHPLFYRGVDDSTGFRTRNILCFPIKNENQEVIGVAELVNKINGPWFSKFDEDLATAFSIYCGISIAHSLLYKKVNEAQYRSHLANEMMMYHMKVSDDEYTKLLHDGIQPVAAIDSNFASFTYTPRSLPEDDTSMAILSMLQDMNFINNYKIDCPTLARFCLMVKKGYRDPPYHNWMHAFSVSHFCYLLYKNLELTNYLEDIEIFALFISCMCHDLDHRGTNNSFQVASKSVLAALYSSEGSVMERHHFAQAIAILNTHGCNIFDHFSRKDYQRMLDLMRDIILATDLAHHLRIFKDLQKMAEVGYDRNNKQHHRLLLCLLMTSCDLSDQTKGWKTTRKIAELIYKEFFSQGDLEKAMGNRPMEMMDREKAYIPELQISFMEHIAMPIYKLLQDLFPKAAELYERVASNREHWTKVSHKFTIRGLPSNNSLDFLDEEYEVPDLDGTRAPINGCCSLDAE
5-hydroxytryptamine receptor 6 (Homo sapiens), sequence (P50406 whole entry): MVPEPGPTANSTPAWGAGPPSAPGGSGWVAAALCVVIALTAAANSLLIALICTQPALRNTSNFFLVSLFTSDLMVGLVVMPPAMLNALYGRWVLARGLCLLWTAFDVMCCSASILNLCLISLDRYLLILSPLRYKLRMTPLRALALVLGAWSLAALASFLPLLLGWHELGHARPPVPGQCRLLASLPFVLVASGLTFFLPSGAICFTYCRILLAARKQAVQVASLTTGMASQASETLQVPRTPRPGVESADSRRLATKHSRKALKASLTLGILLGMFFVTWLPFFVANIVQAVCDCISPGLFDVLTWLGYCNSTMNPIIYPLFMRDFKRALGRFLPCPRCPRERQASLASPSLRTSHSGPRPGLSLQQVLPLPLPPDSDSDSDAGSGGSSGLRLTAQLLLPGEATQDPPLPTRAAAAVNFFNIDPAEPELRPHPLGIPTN
Nociceptin receptor (Homo sapiens), sequence (P41146 whole entry): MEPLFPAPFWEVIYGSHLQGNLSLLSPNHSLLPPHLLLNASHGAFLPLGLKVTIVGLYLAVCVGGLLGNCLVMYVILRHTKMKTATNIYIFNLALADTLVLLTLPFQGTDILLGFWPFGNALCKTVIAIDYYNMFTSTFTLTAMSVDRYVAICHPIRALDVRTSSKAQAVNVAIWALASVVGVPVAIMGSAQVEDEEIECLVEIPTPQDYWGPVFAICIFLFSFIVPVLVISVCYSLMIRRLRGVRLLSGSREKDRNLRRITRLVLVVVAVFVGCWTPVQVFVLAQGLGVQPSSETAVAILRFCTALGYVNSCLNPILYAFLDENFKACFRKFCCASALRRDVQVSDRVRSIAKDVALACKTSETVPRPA
C-X-C chemokine receptor type 2 (Homo sapiens), sequence (P25025 whole entry): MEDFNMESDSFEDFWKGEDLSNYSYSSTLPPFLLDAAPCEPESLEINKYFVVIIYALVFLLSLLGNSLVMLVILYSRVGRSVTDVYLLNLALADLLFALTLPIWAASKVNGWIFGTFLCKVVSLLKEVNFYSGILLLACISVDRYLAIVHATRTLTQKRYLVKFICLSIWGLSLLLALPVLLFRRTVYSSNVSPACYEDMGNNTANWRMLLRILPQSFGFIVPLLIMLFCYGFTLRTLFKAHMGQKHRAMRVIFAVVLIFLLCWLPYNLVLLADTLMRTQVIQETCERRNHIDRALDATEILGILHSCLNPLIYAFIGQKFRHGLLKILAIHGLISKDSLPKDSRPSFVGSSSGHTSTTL

Cc1cc(C(=O)N2CC[C@@H](C)[C@H](c3cc(C(F)F)nc4ncnn34)C2)cc(C)n1
residual activity [1]: 109%
IC50 [2]: 0.0009 µM (active)
ED50 [3]: 5.3 mg/kg
residual activity (Rattus norvegicus [4]): 104%
residual activity (Rattus norvegicus [5]): 104%
residual activity [6]: 103%
residual activity [7]: 104%
residual activity [8]: 100%
residual activity [9]: 94%
residual activity [10]: 89.6%
residual activity [11]: 102%
residual activity [12]: 99.8%
residual activity [13]: 111%
residual activity [14]: 103%
residual activity [15]: 108%
residual activity [16]: 95.3%
residual activity [17]: 100%
residual activity (Mus musculus): 122%
residual activity [18]: 111%
residual activity (Rattus norvegicus [19]): 96.6%
residual activity (Rattus norvegicus [20]): 101%
IC50 [21]: 0.099 µM (not active)
Ki [21]: 0.03 µM
IC50 (Phosphodiesterase 3): 6.643 µM
Ki (Phosphodiesterase 3): 3.32 µM
IC50 [22]: > 10 µM (not active)
IC50 [23]: > 10 µM (not active)
IC50 [24]: > 10 µM (not active)
IC50 [25]: > 10 µM (not active)
IC50 [26]: > 10 µM (not active)
IC50 [27]: > 10 µM (not active)
IC50 [28]: > 10 µM (not active)
